Source: US12668591B2, “1,2,4-oxadiazole derivatives as histone deacetylase 6 inhibitors” (Oryzon Genomics, S.A., priority 2017, dated 2026)

Legend:
[1] = biological target: T1, HDAC6 (Homo sapiens, UniProt Q9UBN7); assay: HDAC6 enzyme inhibition assay (fluorimetric); assay type: biochemical; conditions: 1 μM compound; 3 h pre-incubation; recombinant full length HDAC6; read-out: HDAC6 % inh @ 1 μM
T1 sequence (Q9UBN7 1-1215): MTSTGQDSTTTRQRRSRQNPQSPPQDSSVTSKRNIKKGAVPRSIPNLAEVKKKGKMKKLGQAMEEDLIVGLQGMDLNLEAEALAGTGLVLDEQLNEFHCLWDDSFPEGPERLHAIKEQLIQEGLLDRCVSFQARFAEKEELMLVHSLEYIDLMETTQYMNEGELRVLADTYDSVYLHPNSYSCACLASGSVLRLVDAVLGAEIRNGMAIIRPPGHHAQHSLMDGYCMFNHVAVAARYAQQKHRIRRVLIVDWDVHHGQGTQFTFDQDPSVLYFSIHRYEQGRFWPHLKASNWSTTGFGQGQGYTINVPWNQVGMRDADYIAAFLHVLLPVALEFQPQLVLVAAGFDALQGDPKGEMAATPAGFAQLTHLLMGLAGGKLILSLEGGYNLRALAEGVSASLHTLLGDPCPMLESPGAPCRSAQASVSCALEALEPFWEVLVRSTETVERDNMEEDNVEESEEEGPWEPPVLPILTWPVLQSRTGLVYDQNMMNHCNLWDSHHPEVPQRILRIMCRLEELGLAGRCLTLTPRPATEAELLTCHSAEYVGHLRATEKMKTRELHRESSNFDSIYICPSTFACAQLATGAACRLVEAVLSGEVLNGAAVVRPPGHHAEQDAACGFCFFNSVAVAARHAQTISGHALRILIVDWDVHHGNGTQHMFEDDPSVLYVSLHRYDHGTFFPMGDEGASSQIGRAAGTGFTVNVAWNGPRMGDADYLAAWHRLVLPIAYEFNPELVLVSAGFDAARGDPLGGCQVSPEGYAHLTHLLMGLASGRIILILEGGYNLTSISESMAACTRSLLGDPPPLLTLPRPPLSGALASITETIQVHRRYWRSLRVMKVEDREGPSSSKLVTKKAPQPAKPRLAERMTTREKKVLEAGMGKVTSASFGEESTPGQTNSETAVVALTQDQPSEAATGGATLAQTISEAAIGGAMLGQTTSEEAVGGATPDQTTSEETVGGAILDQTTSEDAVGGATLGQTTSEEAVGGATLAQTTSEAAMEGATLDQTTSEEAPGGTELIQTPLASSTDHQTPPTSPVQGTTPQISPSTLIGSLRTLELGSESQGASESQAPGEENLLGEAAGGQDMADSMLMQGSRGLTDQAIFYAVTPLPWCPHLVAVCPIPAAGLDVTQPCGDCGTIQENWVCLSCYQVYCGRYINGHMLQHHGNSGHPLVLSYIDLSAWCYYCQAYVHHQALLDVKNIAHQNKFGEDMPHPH
Procedure: (§1) HDAC6 and HDAC2 Enzyme Inhibition Assay
(§2) A fluorimetric assay was used for testing the activity of compounds of the invention against HDAC6 and HDAC2.
(§3) The compounds were dissolved in DMSO. Serial dilutions were prepared in DMSO and then diluted 1:10 in HDAC assay buffer (Tris-buffered solution, BPS Bioscience Inc. #50031). 5 μl of the compound dilution was added to a 50 μl reaction so that the final concentration of DMSO was 1%.
(§4) The compounds were pre-incubated in duplicate at RT for 3 hours in a mixture containing HDAC assay buffer, 5 μg BSA and recombinant HDAC enzyme (see table above). The enzymatic reactions were initiated by the addition of a fluorogenic, acetylated peptide substrate based on a histone protein (BPS Bioscience Inc. #50037) to a final concentration of 10 μM. The enzymatic reaction proceeded for 30 minutes at 37° C. Then, 50 μl of 2× HDAC Developer, which contains peptidase activity and Trichostatin A (BPS Bioscience Inc. #50030) was added and the plate was incubated at RT for an additional 15 minutes. Fluorescence intensity was measured at an excitation of 360 nm and an emission of 460 nm using a Tecan Infinite M1000 microplate reader.
(§5) Trichostatin A (TSA, Selleckchem #S1045) was used as reference inhibitor.
(§6) The fluorescent intensity data were analyzed using the computer software Graphpad Prism (GraphPad Software, San Diego, CA). 100% activity was defined as the fluorescent intensity (Ft) in the absence of the compound. 0% activity was defined as the fluorescent intensity (Fb) in the absence of the enzyme. The percent activity in the presence of each compound was calculated according to the following equation: % activity=(F−Fb)/(Ft−Fb), where F=the fluorescent intensity in the presence of the compound.

[2] = biological target: T1, HDAC6; assay: In vitro cell-based assay: acetylation levels of Alpha-Tubulin by Western Blot in MOLP8 cells; parameters: endogenous in cells; host or cells: MOLP8; conditions: 18 h, acetyl-alpha-tubulin relative band intensity, ACY-1215 1 μM = 100%
Outline: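 MOLP8 cells treated with compounds at 5 and 1 μM for 18 h at 37° C.; acetyl-alpha-tubulin measured by Western blot of RIPA extracts (7 μg protein). Bands normalized to total protein or beta-actin, expressed relative to ACY-1215 1 μM (100%), then classed.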

[3] = biological target: T2, HDAC2 (Homo sapiens, UniProt Q92769); assay: HDAC2 enzyme inhibition assay (fluorimetric); assay type: biochemical; conditions: 1 μM compound; 3 h pre-incubation; recombinant full length HDAC2; read-out: HDAC2 % inh @ 1 μM
T2 construct: (full length with C-terminal His-tag); His (C); purchased BPS Bioscience Inc. 50002
T2 sequence (Q92769 whole entry): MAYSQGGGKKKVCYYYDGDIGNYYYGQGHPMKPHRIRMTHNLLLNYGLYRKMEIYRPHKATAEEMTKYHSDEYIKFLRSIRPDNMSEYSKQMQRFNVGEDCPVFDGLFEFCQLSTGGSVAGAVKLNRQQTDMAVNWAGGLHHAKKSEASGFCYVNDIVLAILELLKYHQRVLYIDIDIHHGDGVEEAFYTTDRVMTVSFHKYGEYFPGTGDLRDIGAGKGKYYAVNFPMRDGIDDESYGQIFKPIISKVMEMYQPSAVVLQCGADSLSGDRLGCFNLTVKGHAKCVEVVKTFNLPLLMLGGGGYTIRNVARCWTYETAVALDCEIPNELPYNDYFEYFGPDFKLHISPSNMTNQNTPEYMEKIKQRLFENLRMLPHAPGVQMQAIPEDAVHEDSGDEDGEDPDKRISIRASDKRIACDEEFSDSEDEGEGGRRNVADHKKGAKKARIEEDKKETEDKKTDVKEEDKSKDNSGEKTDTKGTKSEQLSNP
Procedure: as §1, §2, §3, §4, §5, §6

SMILES | inhibition at 1 µM [1] | Cellular activity @1 uM [2] | Cellular activity @5 uM [2] | inhibition at 1 µM [3]
FC(F)(F)c1nc(-c2ccnc(-c3cc4c(ccn4Cc4ccncc4)cn3)c2)no1 [Example 1al, 3-(2-(1-(Pyridin-4-ylmethyl)-1H-pyrrolo[3,2-c]pyridin-6-yl)pyridin-4-yl)-5-(trifluoromethyl)-1,2,4-oxadiazole] | 92% | ++ (150-300) | ++ (150-300) | 31%
Cn1cc(-c2cn[nH]c2)c2cc(-c3cc(-c4noc(C(F)(F)F)n4)ccn3)ncc21 [Example 1ap, 3-(2-(1-Methyl-3-(1H-pyrazol-4-yl)-1H-pyrrolo[2,3-c]pyridin-5-yl)pyridin-4-yl)-5-(trifluoromethyl)-1,2,4-oxadiazole] | 86% | + (50-150) | ++ (150-300) | 6%
CCCCn1cc(C2=CCN(C)CC2)c2cc(-c3cc(-c4noc(C(F)(F)F)n4)ccn3)ncc21 [Example 1aq, 3-(2-(1-Butyl-3-(1-methyl-1,2,3,6-tetrahydropyridin-4-yl)-1H-pyrrolo[2,3-c]pyridin-5-yl)pyridin-4-yl)-5-(trifluoromethyl)-1,2,4-oxadiazole] | 89% | ++ (150-300) | ++ (150-300) | 2%
FC(F)(F)c1nc(-c2ccnc(-c3cc4c(ccn4Cc4ccccn4)cn3)c2)no1 [Example 1aw, 3-(2-(1-(Pyridin-2-ylmethyl)-1H-pyrrolo[3,2-c]pyridin-6-yl)pyridin-4-yl)-5-(trifluoromethyl)-1,2,4-oxadiazole] | 81% | + (50-150) | ++ (150-300) | 15%
O=C(Cc1ccccc1)Nc1ccc(-c2cc(-c3noc(C(F)(F)F)n3)ccn2)nc1 [Example 1q, 2-Phenyl-N-(4′-(5-(trifluoromethyl)-1,2,4-oxadiazol-3-yl)-[2,2′-bipyridin]-5-yl)acetamide] | 73% | + (50-150) | ++ (150-300) | 11%
CN(C)C(=O)c1cc2cc(-c3cc(-c4noc(C(F)(F)F)n4)ccn3)ncc2n1C [Example 1u, N,N,1-Trimethyl-5-(4-(5-(trifluoromethyl)-1,2,4-oxadiazol-3-yl)pyridin-2-yl)-1H-pyrrolo[2,3-c]pyridine-2-carboxamide] | 98% | +++ (>300) | +++ (>300) | 19%
CCCn1cc(-c2cn[nH]c2)c2cc(-c3cc(-c4noc(C(F)(F)F)n4)ccn3)ncc21 [Example 1v, 3-(2-(1-Propyl-3-(1H-pyrazol-4-yl)-1H-pyrrolo[2,3-c]pyridin-5-yl)pyridin-4-yl)-5-(trifluoromethyl)-1,2,4-oxadiazole] | 66% | + (50-150) | +++ (>300) | 3%

Next, values leading:

inhibition at 1 µM [1] | Cellular activity @1 uM [2] | Cellular activity @5 uM [2] | inhibition at 1 µM [3] | SMILES
85% | + (50-150) | ++ (150-300) | 19% | COCCn1ccc2cnc(-c3cc(-c4noc(C(F)(F)F)n4)ccn3)cc21 [Example 1au, 3-(2-(1-(2-Methoxyethyl)-1H-pyrrolo[3,2-c]pyridin-6-yl)pyridin-4-yl)-5-(trifluoromethyl)-1,2,4-oxadiazole]
89% | + (50-150) | ++ (150-300) | 3% | CCN(CC)CCCOc1ccc(-c2cc(-c3noc(C(F)(F)F)n3)ccn2)nc1 [Example 1c, N,N-Diethyl-3-((4′-(5-(trifluoromethyl)-1,2,4-oxadiazol-3-yl)-[2,2′-bipyridin]-5-yl)oxy)propan-1-amine]
84% | + (50-150) | ++ (150-300) | 9% | FC(F)(F)c1nc(-c2ccnc(-c3ccc(OCCCN4CCOCC4)cn3)c2)no1 [Example 1e, 4-(3-((4′-(5-(Trifluoromethyl)-1,2,4-oxadiazol-3-yl)-[2,2′-bipyridin]-5-yl)oxy)propyl)morpholine]
71% | − (<50) | ++ (150-300) | 16% | FC1(F)CCN(CCCOc2ccc(-c3cc(-c4noc(C(F)(F)F)n4)ccn3)nc2)CC1 [Example 1f, 3-(5′-(3-(4,4-Difluoropiperidin-1-yl)propoxy)-[2,2′-bipyridin]-4-yl)-5-(trifluoromethyl)-1,2,4-oxadiazole]
96% | + (50-150) | +++ (>300) | 38% | CCCn1cc(CN2CCCCC2)c2cc(-c3cc(-c4noc(C(F)(F)F)n4)ccn3)ncc21 [Example 1g, 3-(2-(3-(Piperidin-1-ylmethyl)-1-propyl-1H-pyrrolo[2,3-c]pyridin-5-yl)pyridin-4-yl)-5-(trifluoromethyl)-1,2,4-oxadiazole]
69% | − (<50) | ++ (150-300) | 10% | CN(CC1CC1)c1ccc(-c2cc(-c3noc(C(F)(F)F)n3)ccn2)nc1 [Example 1j, N-(Cyclopropylmethyl)-N-methyl-4′-(5-(trifluoromethyl)-1,2,4-oxadiazol-3-yl)-[2,2′-bipyridin]-5-amine]
95% | + (50-150) | + (50-150) | 27% | CCN(CC)CCCNc1ccc(-c2cc(-c3noc(C(F)(F)F)n3)ccn2)nc1 [Example 1k, N^1,N^1-Diethyl-N^3-(4′-(5-(trifluoromethyl)-1,2,4-oxadiazol-3-yl)-[2,2′-bipyridin]-5-yl)propane-1,3-diamine]
97% | ++ (150-300) | +++ (>300) | 23% | FC(F)(F)c1nc(-c2ccnc(-c3cc4c(ccn4C4CCOCC4)cn3)c2)no1 [Example 1o, 3-(2-(1-(Tetrahydro-2H-pyran-4-yl)-1H-pyrrolo[3,2-c]pyridin-6-yl)pyridin-4-yl)-5-(trifluoromethyl)-1,2,4-oxadiazole]
